From paper PMC8741576 (Molecular Diversity, 2022)

Tests used:
[1] = system: HEL 299 normal human lung fibroblasts; test: Antiproliferative screening on noncancerous cells; conditions: for IC50: Homo sapiens, HEL 299, read-out: IC50 HEL 299; for Cytotoxicity against noncancerous cells in words: HEL 299
[2] = system: Z-138 non-Hodgkin lymphoma cells; test: Antiproliferative screening, IncuCyte cell growth; type: cell-based; conditions: Homo sapiens, Z-138, 72 h, read-out: IC50 Z-138
[3] = system: K-562 chronic myeloid leukemia cells; test: Antiproliferative screening, IncuCyte cell growth; type: cell-based; conditions: Homo sapiens, K562, 72 h, read-out: IC50 K-562
[4] = system: NCI-H460 lung carcinoma cells; test: Antiproliferative screening, MTS cell viability assay; type: cell-based; conditions: Homo sapiens, NCI-H460, 72 h, read-out: IC50 NCI-H460
[5] = system: Capan-1 pancreatic adenocarcinoma cells; test: as above; type: cell-based; conditions: Homo sapiens, CAPAN-1, 72 h, read-out: IC50 Capan-1
[6] = system: HCT-116 colorectal carcinoma cells; test: as above; type: cell-based; conditions: Homo sapiens, HCT-116, 72 h, read-out: IC50 HCT-116
[7] = system: HL-60 acute myeloid leukemia cells; test: Antiproliferative screening, IncuCyte cell growth; type: cell-based; conditions: Homo sapiens, HL-60, 72 h, read-out: IC50 HL-60
[8] = system: LN-229 glioblastoma cells; test: Antiproliferative screening, MTS cell viability assay; type: cell-based; conditions: Homo sapiens, LN-229, 72 h, read-out: IC50 LN-229
[9] = system: DND-41 acute lymphoblastic leukemia cells; test: Antiproliferative screening, IncuCyte cell growth; type: cell-based; conditions: Homo sapiens, DND41, 72 h, read-out: IC50 DND-41

Structure (SMILES)	IC50 [2] [µM]	IC50 [3] [µM]	IC50 [4] [µM]	IC50 [5] [µM]	IC50 [6] [µM]	IC50 [7] [µM]	IC50 [8] [µM]	IC50 [9] [µM]	IC50 [1] [µM]	Cytotoxicity against noncancerous cells in words [1]
O=C(NCCCCNc1ccnc2cc(Cl)ccc12)c1ccccc1NCc1ccccc1 [Compound 1, 2-(Benzylamino)-N-{4-[(7-chloroquinolin-4-yl)amino]butyl}benzamide]	> 100	55.7 ± 10	> 100	57.6 ± 14.6	> 100	> 100	53.5 ± 12.2	> 100	8 ± 4.4	–
COc1cc(NC(C)CCCNC(=O)c2ccccc2NCc2ccccc2)c2ncccc2c1 (centres unmarked) [Compound 4, 2-(Benzylamino)-N-{4-[(6-methoxyquinolin-8-yl)amino]pentyl}benzamide]	> 100	> 100	> 100	> 100	> 100	> 100	> 100	> 100	> 100	–
COc1cc(NC(C)CCCNC(=O)c2ccc(Cl)cc2NC(=O)OC(C)(C)C)c2ncccc2c1 (centres unmarked) [Compound 5, tert-Butyl {5-chloro-2-[[4-[(6-methoxyquinolin-8-yl)amino]pentyl]carbamoyl]phenyl}carbamate]	> 100	> 100	> 100	> 100	> 100	> 100	> 100	> 100	> 100	–
COc1cc(NC(C)CCCNC(=O)c2cc(Br)ccc2NC(=O)OC(C)(C)C)c2ncccc2c1 (centres unmarked) [Compound 6, tert-Butyl {4-bromo-2-[[4-[(6-methoxyquinolin-8-yl)amino]pentyl]carbamoyl]phenyl}carbamate]	> 100	> 100	> 100	> 100	> 100	> 100	> 100	> 100	> 100	–

These reach a lower IC50 [2]. Values come first.

IC50 [2] [µM]	IC50 [3] [µM]	IC50 [4] [µM]	IC50 [5] [µM]	IC50 [6] [µM]	IC50 [7] [µM]	IC50 [8] [µM]	IC50 [9] [µM]	Structure (SMILES)	IC50 [1] [µM]	Cytotoxicity against noncancerous cells in words [1]
28.6 ± 14.6	54.5 ± 18.5	21.2 ± 10	20.4 ± 9	32.4 ± 20	41.5 ± 17	30.1 ± 2.1	46.2 ± 1.9	CC(C)(C)OC(=O)Nc1cc(Cl)ccc1C(=O)NCCCCNc1ccnc2cc(Cl)ccc12 [Compound 2, tert-Butyl {5-chloro-2-[[4-[(7-chloroquinolin-4-yl)amino]butyl]carbamoyl]phenyl}carbamate]	> 100	no cytotoxicity against noncancerous cells
55.2 ± 9.2	51.2 ± 9.3	69.3 ± 30.7	40.6 ± 4.2	66.1 ± 30	60.5 ± 17	48.4 ± 20	51.3 ± 4.4	CC(C)(C)OC(=O)Nc1ccc(Br)cc1C(=O)NCCCCNc1ccnc2cc(Cl)ccc12 [Compound 3, tert-Butyl {4-bromo-2-[[4-[(7-chloroquinolin-4-yl)amino]butyl]carbamoyl]phenyl}carbamate]	> 100	no cytotoxicity against noncancerous cells
21 ± 10.1	90.7 ± 18.5	28.4 ± 4	27.5 ± 8.1	34.6 ± 6	66.2 ± 18.3	35.8 ± 9.3	53.5 ± 6.7	Cc1nc(CNC(=O)c2ccccc2NCc2ccccc2)cc2c1[nH]c1ccccc12 [Compound 7, 2-(Benzylamino)-N-[(1-methyl-9H-pyrido[3,4-b]indol-3-yl)methyl]benzamide]	50.9 ± 2.7	–
8.2 ± 1.9	29.1 ± 21.3	8.3 ± 4.3	6.5 ± 2.9	28.9 ± 24.1	6.7 ± 0.2	20.8 ± 13.8	32.1 ± 20.8	Cc1nc(CNC(=O)c2ccc(Cl)cc2NC(=O)OC(C)(C)C)cc2c1[nH]c1ccccc12 [Compound 8, tert-Butyl {5-chloro-2-[[(1-methyl-9H-pyrido[3,4-b]indol-3-yl)methyl]carbamoyl]phenyl}carbamate]	7.1 ± 1.8	–
4.1 ± 1.8	63.1 ± 36.9	3.2 ± 1.8	5.8 ± 3	32.9 ± 7.9	10.8 ± 3.3	8.3 ± 3.1	12.5 ± 6.9	Cc1nc(CNC(=O)c2cc(Br)ccc2NC(=O)OC(C)(C)C)cc2c1[nH]c1ccccc12 [Compound 9, tert-Butyl {4-bromo-2-[[(1-methyl-9H-pyrido[3,4-b]indol-3-yl)methyl]carbamoyl]phenyl}carbamate]	7.5 ± 1	–
